The source of these data is PMC12436592 (Nature Communications, 2025).

Structures are written as SMILES. Where “and” joins values, the source holds several entries; their conditions need not be identical. Equal entries are not always repeated.

The target of one assay is T1, mP2X7R (Mus musculus, UniProt Q9Z1M0).
T1 construct: expressed in transfected cells
T1 sequence (Q9Z1M0 1-595): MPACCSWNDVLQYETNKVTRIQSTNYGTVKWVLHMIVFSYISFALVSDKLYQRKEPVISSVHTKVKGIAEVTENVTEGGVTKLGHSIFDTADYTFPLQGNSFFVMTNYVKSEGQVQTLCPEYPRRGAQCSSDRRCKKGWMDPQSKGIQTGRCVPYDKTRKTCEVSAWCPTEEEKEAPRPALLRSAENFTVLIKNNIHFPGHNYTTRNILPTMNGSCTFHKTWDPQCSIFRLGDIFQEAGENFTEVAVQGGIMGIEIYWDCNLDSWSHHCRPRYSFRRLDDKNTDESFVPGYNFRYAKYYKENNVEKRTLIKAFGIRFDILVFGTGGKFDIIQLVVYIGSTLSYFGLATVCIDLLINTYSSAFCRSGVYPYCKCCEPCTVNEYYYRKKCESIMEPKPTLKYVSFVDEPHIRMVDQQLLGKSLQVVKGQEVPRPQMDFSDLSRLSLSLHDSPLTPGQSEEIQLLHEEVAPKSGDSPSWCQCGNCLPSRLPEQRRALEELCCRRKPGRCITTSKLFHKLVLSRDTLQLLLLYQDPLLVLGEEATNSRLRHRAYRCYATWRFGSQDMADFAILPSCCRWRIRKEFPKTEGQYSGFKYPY
As to the kind of experiment: Calcium influx assay, 1321N1 astrocytoma cells, BzATP EC80. The assay is classed as cell-based. The following applies: for IC50: 1321N1 cells, BzATP EC80, mean ± SD. From the text: (§1) . For 1321N1 astrocytoma cells stably expressing the human, rat, or mouse P2X7Rs, or hP2X2Rs or hP2X4Rs, the fluorescent Ca^2+-chelating dye Fluo-4 acetoxymethyl ester (Fluo-4 AM, Thermo Fisher Scientific, Dreieich, Germany) was used. For 1321N1 astrocytoma cell lines recombinantly expressing the hP2X1Rs or hP2X3Rs, the FLIPR® Calcium 5 Assay Kit (Molecular Devices, San José, CA, USA) was employed. Human, rat, and mouse P2X7Rs as well as hP2X1Rs, hP2X2Rs, hP2X3Rs, and hP2X4Rs were recombinantly expressed in 1321N1 astrocytoma cells using a retroviral expression system[72]–[74].
On the first day, 45,000 cells per well (30,000 cells for the human P2X3 receptor-expressing cells) were seeded into a 96-well polystyrene microplate with a black, flat bottom in a final volume of 200 µL. After overnight incubation at 37 °C and 10% CO2 (5% CO2 for the human P2X3R-expressing cell line), the medium was removed by inverting the plate, and the cells were loaded with dye solution. Hanks’ balanced salt solution (HBSS, Thermo Fisher Scientific, Dreieich, Germany) was used as the assay buffer for human P2X1R, P2X2R, P2X3R, and P2X4R. For the P2X7Rs, a different assay buffer was used: 150 mM sodium-glutamate, 5 mM KCl, 0.5 mM CaCl2, 0.1 mM MgCl2, 10 mM D-glucose, 25 mM 4-(2-hydroxyethyl)-1-piperazineethanesulfonic acid (HEPES), pH 7.4. The dye solutions were freshly prepared. The Fluo-4 AM solution contained 3 µM of Fluo-4 AM in assay buffer and 1% of the non-ionic detergent Pluronic F-127® (Sigma-Aldrich, Taufkirchen, Germany). The Calcium 5 dye, used for hP2X1Rs and hP2X3Rs, was prepared in HBSS buffer. Cells were loaded with Fluo-4 AM and incubated for 1 h at room temperature with gentle shaking (100 rpm), while those loaded with the Calcium 5 dye were incubated for 1 h at 37 °C. After incubation, the dye solution was carefully removed from the plate, and buffer was added to the cells for the evaluation of agonists. […] The agonist solution was prepared in a 96-well transparent plate, obtaining the respective EC80 values. As a control, assay buffer without the test compound was used. After 30 min of incubation with antagonist, the plates were measured using a fluorescence imaging plate reader NOVOstar (BMG Labtech GmbH, Offenburg, Germany) at an excitation wavelength of 485 nm and an emission wavelength of 520 nm, for 30 s at 0.4 s intervals. Calcium influx measurements were then initiated by automatic addition of 20 µL of agonist solution by the plate reader’s pipetting device. Data were analyzed using Microsoft Excel and GraphPad Prism (Version 8.0, San Diego, CA, USA). EC80 and IC50 values were calculated using nonlinear regression with a sigmoidal dose-response equation.

A further assay deals with T2, hP2X1R (Homo sapiens, UniProt P51575).
T2 sequence (P51575 51-338 limits assumed): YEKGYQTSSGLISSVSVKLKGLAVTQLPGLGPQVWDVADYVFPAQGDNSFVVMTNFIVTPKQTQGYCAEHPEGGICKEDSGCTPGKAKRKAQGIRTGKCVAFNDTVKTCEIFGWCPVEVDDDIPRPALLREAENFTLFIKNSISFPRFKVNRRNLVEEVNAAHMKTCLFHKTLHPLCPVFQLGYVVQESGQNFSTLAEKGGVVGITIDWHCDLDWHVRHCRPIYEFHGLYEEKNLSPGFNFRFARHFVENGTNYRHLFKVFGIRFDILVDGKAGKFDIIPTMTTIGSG
Briefly: Calcium influx assay, 1321N1 astrocytoma cells, ATP EC80. The assay is classed as cell-based. The following applies: 1321-N1, read-out: % inhibition ± SD at 10 μM, hP2X1R, 10 μM antagonist, ATP 100 nM.
Excerpt: as §1
On the first day, 45,000 cells per well (30,000 cells for the human P2X3 receptor-expressing cells) were seeded into a 96-well polystyrene microplate with a black, flat bottom in a final volume of 200 µL. […] After 30 min of incubation with antagonist, the plates were measured using a fluorescence imaging plate reader NOVOstar (BMG Labtech GmbH, Offenburg, Germany) at an excitation wavelength of 485 nm and an emission wavelength of 520 nm, for 30 s at 0.4 s intervals. Calcium influx measurements were then initiated by automatic addition of 20 µL of agonist solution by the plate reader’s pipetting device. Data were analyzed using Microsoft Excel and GraphPad Prism (Version 8.0, San Diego, CA, USA). EC80 and IC50 values were calculated using nonlinear regression with a sigmoidal dose-response equation.

Consider `O=C(NNc1ccccc1Cl)C12CC3CC(CC(C3)C1)C2` [UB-ALT-P30, reference compound], for which the activity at 0.003 µM at mP2X7R (1321-N1, Log(c) M -8.52288, read-out: normalized calcium signal, mP2X7R IC50 curve) was 101%. Moreover, the IC50 (commonly the concentration needed to halve the response being measured) on mP2X7R is 148 ± 27 nM. The “normalized calcium signal, mP2X7R IC50 curve” value on mP2X7R (Log(c) M -7, 0.1 µM) is 58.6062 and 69.2329 and 80.2999 and 70.4572 and 91.3507 and 85.9323 and 94.1322; on mP2X7R (Log(c) M -7.52288, 0.03 µM) it was 92.3415 and 79.1265 and 114.599 and 132.12 and 97.8989 and 119.546; at mP2X7R (Log(c) M -8, 0.01 µM), 92.8335 and 100.155 and 89.6254 and 122.632 and 113.342 and 120.308; at mP2X7R (Log(c) M -8.52288, 0.003 µM), 96.3012 and 101.363. For the same compound, the inhibition (in general, the change of the read-out against control, counted positive when it falls) at 10 µM on hP2X1R is 36 ± 8%.

Turning to `CC12CC3CC1(C)C1(C)CC3(C(=O)NNc3ccccc3Cl)CC21C` [UB-MBX-46], at mP2X7R, the IC50 worked out at 4.52 ± 0.72 nM. In addition, the “normalized calcium signal, mP2X7R IC50 curve” value on mP2X7R (Log(c) M -8.52288, 0.003 µM) was 72.2751 and 83.0134 and 65.4518 and 88.1956 and 92.7904 and 87.7744 and 76.3105 and 64.8252; on mP2X7R (Log(c) M -9, 0.001 µM), 110.597 and 115.455 and 88.4 and 102.046 and 107.58 and 103.403 and 110.382; on mP2X7R (Log(c) M -9.52288, 0.0003 µM), 115.86 and 127.811 and 92.8545 and 89.4511 and 104.887 and 106.902 and 87.8281 and 105.571. Moreover, the “times more potent than UB-ALT-P30 on the mP2X7R” value on mP2X7R (calcium influx) is reported as ~ 33 x.
